Measured values: DBAASP
Converted amounts (≈) assume the structure as drawn.

What was measured:
Experiment in all cases: ≥ marks a high value that may be exact or a test limit, other limits are often not marked, values filed in µg/mL are converted to µM
Aureobasidium pullulans = system: Aureobasidium pullulans
Bacillus megaterium = system: Bacillus megaterium
[1] = system: Bacillus subtilis ATCC 23857
[2] = system: Candida albicans ATCC 10231
[3] = system: Corynebacterium glutamicum ATCC 13032
[4] = system: Escherichia coli ATCC 25922
Micrococcus luteus = system: Micrococcus luteus
[5] = system: Pseudomonas aeruginosa ATCC 27853
[6] = system: Staphylococcus aureus ATCC 9144
Escherichia coli K-12 = system: Escherichia coli K-12
Klebsiella pneumoniae = system: Klebsiella pneumoniae
[7] = system: Pseudomonas aeruginosa PAO1
[8] = system: Staphylococcus aureus NCTC 8325-4
[9] = system: Bacillus subtilis CCT 2471
Candida albicans = system: Candida albicans
[10] = system: Escherichia coli CCT 1371
[11] = system: Pseudomonas aeruginosa ATCC 15442
[12] = system: Staphylococcus aureus ATCC 25923
[13] = system: Staphylococcus aureus ATCC 6538
[14] = system: Staphylococcus epidermidis
[15] = system: Staphylococcus saprophyticus

Compound: C[C@H](NC(=O)[C@H](CCCCN)NC(=O)[C@H](Cc1c[nH]c2ccccc12)NC(=O)CNC(=O)[C@H](Cc1c[nH]c2ccccc12)NC(=O)[C@H](Cc1c[nH]c2ccccc12)NC(=O)[C@H](CCCCN)NC(=O)[C@H](CCCCN)NC(=O)CN)C(=O)N[C@@H](CCCCN)C(N)=O [GKKWWGWKAK]
- MIC (Aureobasidium pullulans): 24.6 µM (≈ 31.3 µg/mL)
- MIC (Bacillus megaterium): 0.785 µM (≈ 0.999 µg/mL)
- MIC [1]: 12.2 µM (≈ 15.6 µg/mL)
- MIC [2]: 24.6 µM (≈ 31.3 µg/mL)
- MIC [3]: 1.57 µM (≈ 2 µg/mL)
- MIC [4]: 24.6 µM (≈ 31.3 µg/mL)
- MIC (Micrococcus luteus): 12.2 µM (≈ 15.6 µg/mL)
- MIC [5]: 196 µM (≈ 250 µg/mL)
- MIC [6]: ≥ 196 µM

Compound: CC(C)[C@H](NC(=O)[C@H](CCCCN)NC(=O)[C@H](C)NC(=O)[C@@H](NC(=O)[C@@H](NC(=O)[C@H](CCCN=C(N)N)NC(=O)[C@H](CCCN=C(N)N)NC(=O)[C@H](Cc1c[nH]c2ccccc12)NC(=O)[C@H](Cc1c[nH]c2ccccc12)NC(=O)CN)[C@@H](C)O)C(C)C)C(=O)N[C@@H](C)C(=O)N[C@@H](CCCCN)C(N)=O [GWWRRTVAKVAK]
- MIC (Aureobasidium pullulans): ≥ 50 µM
- MIC [2]: 25 µM (≈ 36.4 µg/mL)
- MIC [3]: 1.6 µM (≈ 2.33 µg/mL)
- MIC [4]: 12.5 µM (≈ 18.2 µg/mL)
- MIC [5]: 12.5 µM (≈ 18.2 µg/mL)
- MIC [6]: ≥ 100 µM

Compound: CC[C@H](C)[C@H](N)C(=O)N[C@@H](CCCCN)C(=O)N[C@@H](CCCCN)C(=O)N[C@H](C(=O)N[C@H](C(=O)N[C@@H](CCCCN)C(=O)N[C@@H](CCCCN)C(=O)N[C@H](C(=O)N[C@H](C(=O)N[C@@H](CCCCN)C(N)=O)[C@@H](C)CC)[C@@H](C)CC)[C@@H](C)CC)[C@@H](C)CC [IKKIIKKIIK]
- MIC (Escherichia coli K-12): ≥ 500 µM
- MIC (Klebsiella pneumoniae): > 500 µM
- MIC [7]: > 500 µM
- MIC [8]: ≥ 500 µM

Compound: CC[C@H](C)[C@H](N)C(=O)N[C@@H](CC(N)=O)C(=O)N[C@@H](CC(C)C)C(=O)N[C@@H](CC(C)C)C(=O)N[C@@H](CCCCN)C(=O)N[C@H](C(=O)N[C@@H](C)C(=O)N[C@@H](CCCCN)C(=O)NCC(=O)N[C@H](C(=O)N[C@H](C(=O)N[C@@H](CCCCN)C(=O)N[C@@H](CO)C(=O)N[C@@H](CC(C)C)C(=O)O)[C@@H](C)CC)[C@@H](C)CC)[C@@H](C)CC [INLLKIAKGIIKSL]
- MIC [9]: ≥ 65.6 µM
- MIC (Candida albicans): > 65.6 µM
- MIC [4]: 16.4 µM (≈ 25 µg/mL)
- MIC [10]: ≥ 32.8 µM
- MIC [11]: ≥ 65.6 µM
- MIC [12]: 6.56 µM (≈ 10 µg/mL)
- MIC [13]: 65.6 µM (≈ 100 µg/mL)
- MIC [14]: ≥ 32.8 µM
- MIC [15]: 16.4 µM (≈ 25 µg/mL)
